Results taken from patent US4355026A, “4-Demethoxy,11-deoxy anthracycline derivatives” (priority 1980, dated 1982).
Converted amounts (≈) assume the structure as drawn. Read-outs that look alike come from different tables or passages of the source.

Columns and labels:
L1210 leukemia cells [1] = test: Inhibitory effect on growth of L1210 cultivated leukemic cells of mice; type: cell-based; conditions: Mus musculus
Procedure: (§1) A. Inhibitory Effect on Growth, DNA Synthesis and RNA Synthesis of L1210 Cultivated Leukemic Cells of Mice
For example, L1210 cells were inoculated in a concentration of 5×10^4 cells/ml in an RPMI 1640 culture medium (Roswell Park Memorial Institute 1640) containing 20% calf serum and, simultaneously, representative compounds of the present invention were added in a concentration of 0.1 and 0.5 μg/ml. The cells were cultivated in a CO2 generator at 37° C. The 50% growth inhibitory concentration with respect to a control group was then determined.

[2] = test system: L1210 leukemia cells, DNA synthesis; test: Inhibition of DNA synthesis (14C-thymidine incorporation) of L1210 cultivated leukemic cells; type: cell-based; conditions: Mus musculus, L1210, 1 h; for IC50: read-out: IC50 DNA synthesis; for IC90: read-out: IC90 DNA synthesis
Procedure: as §1
(§2) Separately, the above L1210 cultivated cells were suspended in a concentration of 5×10^5 cells/ml in an RPMI 1640 medium containing 10% calf serum and cultivated for 1 to 2 hours in a CO2 incubator at 37° C. Then, representative test compounds were added in various concentrations, and 15 minutes later, ^14 C-uridine (0.05 μCi/ml) or ^14 C-thymidine (0.05 μCi/ml) were added. The cells were incubated at 37° C. for 60 minutes. A 10% aqueous trichloroacetic acid solution was added to the incubation medium to stop the reaction and simultaneously precipitate acid-insoluble matter. The acid-insoluble matter was washed three times with a 5 to 10% aqueous solution of trichloroacetic acid and then dissolved in formic acid. The radioactivity of the acid-insoluble matter was measured. From the ratio of incorporated radiation to that of a control group, the concentrations which inhibited radiation by 10%, 50% and 90% respectively were measured.

[3] = test system: L1210 leukemia cells, RNA synthesis; test: Inhibition of RNA synthesis (14C-uridine incorporation) of L1210 cultivated leukemic cells; type: cell-based; conditions: Mus musculus, L1210, 1 h; for IC50: read-out: IC50 RNA synthesis; for IC90: read-out: IC90 RNA synthesis
Procedure: as §1, §2

L1210 leukemia cells [4] = test: Antitumor activity on CDFI mouse leukemia induced by mouse L1210 leukemia cells; type: in vivo, CDFI mice; set-up: key to Toxicity: *: Toxicity-; conditions: intraperitoneal, 10 consecutive days
Procedure: B. Antitumor Activity on CDFI Mouse Leukemia Induced by Mouse L1210 Leukemia cells
L1210 leukemia cells of mice were intraperitoneally transplanted in an amount of 1×10^5 cells/mouse in CDFI mice. Starting 24 hours after the transplantation, each of the test compounds was intraperitoneally administered to the mice for 10 consecutive days. the survival rate (T/C, %) was calculated in comparison with a control group (to which physiological saline was administered).

[5] = L1210, 24 h, 1 day later, RPMI 1640, 20% calf serum, 37° C., read-out: IC50 growth, 1 day later
[6] = L1210, 48 h, 2 days later, RPMI 1640, 20% calf serum, 37° C., read-out: IC50 growth, 2 days later
[7] = 14C-thymidine, 60 minutes, 37° C.
[8] = 90% inhibition, 14C-thymidine, 60 minutes, 37° C.
[9] = 14C-uridine, 60 minutes, 37° C.
[10] = 90% inhibition, 14C-uridine, 60 minutes, 37° C.
[11] = L1210, 24 h, read-out: IC50 growth, 1 day later
[12] = L1210, 48 h, read-out: IC50 growth, 2 days later

| SMILES | IC50 (L1210 leukemia cells [1]; [5]) | IC50 (L1210 leukemia cells [1]; [6]) | IC50 [2, 7] | IC90 [2, 8] | IC50 [3, 9] | IC90 [3, 10] | also measured |
| --- | --- | --- | --- | --- | --- | --- | --- |
| COc1cccc2c1C(=O)c1c(cc3c(c1O)[C@@H](O[C@H]1C[C@H](N)[C@H](O)[C@H](C)O1)C[C@](O)(C(=O)CO)C3)C2=O [11-Deoxy-adriamycin, reference compound] | 0.005 µg/mL (≈ 0.00948 µM) |  |  |  |  |  |  |
| CC(=O)[C@]1(O)Cc2c(O)c3c(c(O)c2[C@@H](O[C@H]2C[C@H](N)[C@H](O)[C@H](C)O2)C1)C(=O)c1ccccc1C3=O [4-Demethoxy-daunomycin, reference compound] | 0.01 µg/mL (≈ 0.0201 µM) | 0.005 µg/mL (≈ 0.0101 µM) | 0.08 µg/mL (≈ 0.161 µM) | 1.2 µg/mL (≈ 2.41 µM) | 0.14 µg/mL (≈ 0.281 µM) | 1.4 µg/mL (≈ 2.81 µM) |  |
| COc1cccc2c1C(=O)c1c(O)c3c(c(O)c1C2=O)C[C@@](O)(C(C)=O)C[C@@H]3O[C@H]1C[C@H](N)[C@H](O)[C@H](C)O1 [Daunomycin, reference compound] |  |  |  |  |  |  | IC50 (L1210 leukemia cells [1]; [11]): 0.049 µg/mL (≈ 0.0929 µM); IC50 (L1210 leukemia cells [1]; [12]): 0.036 µg/mL (≈ 0.0682 µM); IC50 [2]: 0.3 µg/mL (≈ 0.569 µM); IC90 [2]: 1.8 µg/mL (≈ 3.41 µM); IC50 [3]: 0.18 µg/mL (≈ 0.341 µM); IC90 [3]: 1.8 µg/mL (≈ 3.41 µM); Survival rate (T/C, %) (L1210 leukemia cells [4]; 0.15 mg/kg/day): 118%; Survival rate (T/C, %) (L1210 leukemia cells [4]; 0.3 mg/kg/day): 132%; Survival rate (T/C, %) (L1210 leukemia cells [4]; 0.6 mg/kg/day): 145%; Survival rate (T/C, %) (L1210 leukemia cells [4]; 1.25 mg/kg/day): 191%; Survival rate (T/C, %) (L1210 leukemia cells [4]; 2.5 mg/kg/day): 138%; Survival, in words (dead through toxicity) (L1210 leukemia cells [4]; 5 mg/kg/day): dead |
| CC(=O)[C@@]1(O)Cc2cc3c(c(O)c2[C@H](O[C@@H]2C[C@H](N)[C@H](O)[C@H](C)O2)C1)C(=O)c1ccccc1C3=O (single isomer, unassigned; isomer 4) [4-Demethoxy-11-deoxy-daunomycin (7R,9R,1'β )isomer, 4-Demethoxy-11-deoxydaunomycin] | 2 µg/mL (≈ 4.15 µM) | 1.25 µg/mL (≈ 2.6 µM) | 4.5 µg/mL (≈ 9.35 µM) | 15 µg/mL (≈ 31.2 µM) | 5 µg/mL (≈ 10.4 µM) | 13 µg/mL (≈ 27 µM) |  |
| COc1cccc2c1C(=O)c1c(O)c3c(c(O)c1C2=O)C[C@@](O)(C(=O)CO)C[C@@H]3O[C@H]1C[C@H](N)[C@H](O)[C@H](C)O1 [Adriamycin] |  |  |  |  |  |  | IC50 (L1210 leukemia cells [1]; [11]): 0.05 µg/mL (≈ 0.092 µM); IC50 (L1210 leukemia cells [1]; [12]): 0.03 µg/mL (≈ 0.0552 µM); IC50 [2]: 1.65 µg/mL (≈ 3.04 µM); IC90 [2]: 4.5 µg/mL (≈ 8.28 µM); IC50 [3]: 0.68 µg/mL (≈ 1.25 µM); IC90 [3]: 6.5 µg/mL (≈ 12 µM); Survival rate (T/C, %) (L1210 leukemia cells [4]; 0.15 mg/kg/day): 130%; Survival rate (T/C, %) (L1210 leukemia cells [4]; 0.3 mg/kg/day): 147%; Survival rate (T/C, %) (L1210 leukemia cells [4]; 0.6 mg/kg/day): 239%; Survival rate (T/C, %) (L1210 leukemia cells [4]; 1.25 mg/kg/day): 272%; Survival rate (T/C, %) (L1210 leukemia cells [4]; 2.5 mg/kg/day): 351%; Survival rate (T/C, %) (L1210 leukemia cells [4]; 5 mg/kg/day): 189%; Toxicity (L1210 leukemia cells [4]; 5 mg/kg/day): * |
| CC(=O)[C@]1(O)Cc2cc3c(c(O)c2[C@@H](O[C@@H]2C[C@H](N)[C@H](O)[C@H](C)O2)C1)C(=O)c1ccccc1C3=O (single isomer, unassigned; isomer 4) [4-Demethoxy-11-deoxy-daunomycin (7S,9S,1'β)isomer, 4-Demethoxy-11-deoxydaunomycin] | 1.4 µg/mL (≈ 2.91 µM) | 0.51 µg/mL (≈ 1.06 µM) | 3.1 µg/mL (≈ 6.44 µM) | 15 µg/mL (≈ 31.2 µM) | 5.4 µg/mL (≈ 11.2 µM) | 14 µg/mL (≈ 29.1 µM) |  |
| C[C@@H]1O[C@@H](O[C@H]2C[C@](O)(C(=O)CO)Cc3c(O)c4c(c(O)c32)C(=O)c2ccccc2C4=O)C[C@H](N)[C@@H]1O [4-Demethoxy-adriamycin, reference compound] | 0.02 µg/mL (≈ 0.0389 µM) | 0.006 µg/mL (≈ 0.0117 µM) | 1.6 µg/mL (≈ 3.12 µM) | 10 µg/mL (≈ 19.5 µM) | 1.2 µg/mL (≈ 2.34 µM) | 6 µg/mL (≈ 11.7 µM) |  |
| COc1cccc2c1C(=O)c1c(cc3c(c1O)[C@@H](O[C@H]1C[C@H](N)[C@H](O)[C@H](C)O1)C[C@](O)(C(C)=O)C3)C2=O [11-deoxy-daunomycin, reference compound] | 0.05 µg/mL (≈ 0.0977 µM) |  |  |  |  |  |  |
